In PubChem BioAssay AID1963841 (Molecular Pharmacology Branch, DTP, NCI, 2024):

Test system: 439559-082-T-J2-PDC spheroid viability
Experiment: Anticancer human tumor 439559-082-T-J2-PDC patient-derived colon adenocarcinoma cell line growth inhibition [POLQ]
Conditions: spheroids with HUVEC and MSC; for IC50: curve of first compound; for viability, T/C: stronger effect = lower value
In short: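 Three-cell-type spheroids modelling solid tumor plus stroma served as the readout system; POL inhibitors were tested individually and in combination, concentration ranges set by clinical Cmax where known.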

[1] = second compound 0.0316 µM, first compound 0.0316 µM
[2] = second compound 0.0316 µM, first compound 0.1 µM
[3] = second compound 0.0316 µM, first compound 0.316 µM
[4] = second compound 0.0316 µM, first compound 1 µM
[5] = second compound 0.0316 µM, first compound 3.16 µM
[6] = second compound 0.0316 µM, first compound 10 µM
[7] = second compound 0.1 µM, first compound 0.0316 µM
[8] = second compound 0.1 µM, first compound 0.1 µM
[9] = second compound 0.1 µM, first compound 0.316 µM
[10] = second compound 0.1 µM, first compound 1 µM
[11] = second compound 0.1 µM, first compound 3.16 µM
[12] = second compound 0.1 µM, first compound 10 µM
[13] = second compound 0.316 µM, first compound 0.0316 µM
[14] = second compound 0.316 µM, first compound 0.1 µM
[15] = second compound 0.316 µM, first compound 0.316 µM
[16] = second compound 0.316 µM, first compound 1 µM
[17] = second compound 0.316 µM, first compound 3.16 µM
[18] = second compound 0.316 µM, first compound 10 µM
[19] = second compound 1 µM, first compound 0.0316 µM
[20] = second compound 1 µM, first compound 0.1 µM
[21] = second compound 1 µM, first compound 0.316 µM
[22] = second compound 1 µM, first compound 1 µM
[23] = second compound 1 µM, first compound 3.16 µM
[24] = second compound 1 µM, first compound 10 µM
[25] = second compound 3.16 µM, first compound 0.0316 µM
[26] = second compound 3.16 µM, first compound 0.1 µM
[27] = second compound 3.16 µM, first compound 0.316 µM
[28] = second compound 3.16 µM, first compound 1 µM
[29] = second compound 3.16 µM, first compound 3.16 µM
[30] = second compound 3.16 µM, first compound 10 µM
[31] = second compound 10 µM, first compound 0.0316 µM
[32] = second compound 10 µM, first compound 0.1 µM
[33] = second compound 10 µM, first compound 0.316 µM
[34] = second compound 10 µM, first compound 1 µM
[35] = second compound 10 µM, first compound 3.16 µM
[36] = second compound 10 µM, first compound 10 µM
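Also: spheroids exposed to compounds for seven days before readout.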
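For viability, T/C in this document: 100% = DMSO vehicle control viability.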

C#Cc1c(F)ccc2cc(O)cc(-c3ncc4c(N5CC6CCC(C5)N6)nc(OCC56CCCN5CC(F)C6)nc4c3F)c12 (stereo not drawn) + Cc1cccc(N(C)C(=O)C2C(O)CCN2c2nc(C)cc(C(F)(F)F)c2C#N)c1
IC50 (second compound 0.0316 µM): > 10 µM
IC50 (second compound 0.1 µM): > 10 µM
IC50 (second compound 0.316 µM): > 10 µM
IC50 (second compound 1 µM): > 10 µM
IC50 (second compound 3.16 µM): > 10 µM
IC50 (second compound 10 µM): 7.64 µM
viability, T/C [1]: 92%
viability, T/C [2]: 86.6%
viability, T/C [3]: 72.3%
viability, T/C [4]: 63.1%
viability, T/C [5]: 61.9%
viability, T/C [6]: 52.5%
viability, T/C [7]: 100%
viability, T/C [8]: 81.5%
viability, T/C [9]: 72.1%
viability, T/C [10]: 70.7%
viability, T/C [11]: 59.2%
viability, T/C [12]: 55%
viability, T/C [13]: 99%
viability, T/C [14]: 87.6%
viability, T/C [15]: 72%
viability, T/C [16]: 69.9%
viability, T/C [17]: 61.2%
viability, T/C [18]: 60.3%
viability, T/C [19]: 87.6%
viability, T/C [20]: 78.1%
viability, T/C [21]: 72.4%
viability, T/C [22]: 66.7%
viability, T/C [23]: 62%
viability, T/C [24]: 51.8%
viability, T/C [25]: 94.5%
viability, T/C [26]: 80.9%
viability, T/C [27]: 69.8%
viability, T/C [28]: 65.7%
viability, T/C [29]: 63.2%
viability, T/C [30]: 52.5%
viability, T/C [31]: 81.2%
viability, T/C [32]: 69.1%
viability, T/C [33]: 69%
viability, T/C [34]: 58.1%
viability, T/C [35]: 58.2%
viability, T/C [36]: 46.7%

CC1COCCN1c1cc(C2(O)CC3CCC(C2)O3)c2cnn(-c3ccn[nH]3)c2n1 (stereo not drawn) + Cc1cccc(N(C)C(=O)C2C(O)CCN2c2nc(C)cc(C(F)(F)F)c2C#N)c1
IC50 (second compound 0.0316 µM): 3.84 µM
IC50 (second compound 0.1 µM): 5.32 µM
IC50 (second compound 0.316 µM): 3.18 µM
IC50 (second compound 1 µM): 4.98 µM
IC50 (second compound 3.16 µM): 2.87 µM
IC50 (second compound 10 µM): 2.93 µM
viability, T/C [1]: 96.4%
viability, T/C [2]: 79.1%
viability, T/C [3]: 71.1%
viability, T/C [4]: 60.9%
viability, T/C [5]: 47.7%
viability, T/C [6]: 46.4%
viability, T/C [7]: 95.6%
viability, T/C [8]: 86.1%
viability, T/C [9]: 66%
viability, T/C [10]: 60.1%
viability, T/C [11]: 49.3%
viability, T/C [12]: 49%
viability, T/C [13]: 94.5%
viability, T/C [14]: 79.4%
viability, T/C [15]: 70.2%
viability, T/C [16]: 57%
viability, T/C [17]: 48.4%
viability, T/C [18]: 46.6%
viability, T/C [19]: 95.5%
viability, T/C [20]: 78.4%
viability, T/C [21]: 69.3%
viability, T/C [22]: 61%
viability, T/C [23]: 51.5%
viability, T/C [24]: 46.8%
viability, T/C [25]: 91.3%
viability, T/C [26]: 80.8%
viability, T/C [27]: 66.7%
viability, T/C [28]: 57%
viability, T/C [29]: 48.9%
viability, T/C [30]: 46.1%
viability, T/C [31]: 80.9%
viability, T/C [32]: 73.7%
viability, T/C [33]: 65.5%
viability, T/C [34]: 55.6%
viability, T/C [35]: 51.6%
viability, T/C [36]: 41.1%

CCc1cc2c(N3CCc4c(cc(Cn5ccnc5)cc4-c4cn(C)nc4C(F)(F)F)C3=O)cc(C)nc2c(OC)n1 + Cc1cccc(N(C)C(=O)C2C(O)CCN2c2nc(C)cc(C(F)(F)F)c2C#N)c1
IC50 (second compound 0.0316 µM): > 10 µM
IC50 (second compound 0.1 µM): > 10 µM
IC50 (second compound 0.316 µM): > 10 µM
IC50 (second compound 1 µM): > 10 µM
IC50 (second compound 3.16 µM): > 10 µM
IC50 (second compound 10 µM): > 10 µM
viability, T/C [1]: 105%
viability, T/C [2]: 101%
viability, T/C [3]: 101%
viability, T/C [4]: 98.3%
viability, T/C [5]: 95.1%
viability, T/C [6]: 97.3%
viability, T/C [7]: 101%
viability, T/C [8]: 96.9%
viability, T/C [9]: 90.2%
viability, T/C [10]: 77.2%
viability, T/C [11]: 111%
viability, T/C [12]: 105%
viability, T/C [13]: 94.7%
viability, T/C [14]: 95.3%
viability, T/C [15]: 105%
viability, T/C [16]: 81%
viability, T/C [17]: 90.6%
viability, T/C [18]: 89.8%
viability, T/C [19]: 96.6%
viability, T/C [20]: 104%
viability, T/C [21]: 95.8%
viability, T/C [22]: 95.7%
viability, T/C [23]: 99.6%
viability, T/C [24]: 94.9%
viability, T/C [25]: 111%
viability, T/C [26]: 93.6%
viability, T/C [27]: 87.6%
viability, T/C [28]: 92.2%
viability, T/C [29]: 107%
viability, T/C [30]: 94%
viability, T/C [31]: 94.8%
viability, T/C [32]: 111%
viability, T/C [33]: 80.7%
viability, T/C [34]: 91.5%
viability, T/C [35]: 98.1%
viability, T/C [36]: 86%

COc1cc2cc(C(=O)CCC(=O)O)sc2cc1OC + Cc1cccc(N(C)C(=O)C2C(O)CCN2c2nc(C)cc(C(F)(F)F)c2C#N)c1
IC50 (second compound 0.0316 µM): > 10 µM
IC50 (second compound 0.1 µM): > 10 µM
IC50 (second compound 0.316 µM): > 10 µM
IC50 (second compound 1 µM): > 10 µM
IC50 (second compound 3.16 µM): > 10 µM
IC50 (second compound 10 µM): > 10 µM
viability, T/C [1]: 104%
viability, T/C [2]: 92.7%
viability, T/C [3]: 95.1%
viability, T/C [4]: 101%
viability, T/C [5]: 100%
viability, T/C [6]: 84.8%
viability, T/C [7]: 107%
viability, T/C [8]: 101%
viability, T/C [9]: 105%
viability, T/C [10]: 99%
viability, T/C [11]: 91.7%
viability, T/C [12]: 94.2%
viability, T/C [13]: 99.5%
viability, T/C [14]: 112%
viability, T/C [15]: 86.7%
viability, T/C [16]: 108%
viability, T/C [17]: 106%
viability, T/C [18]: 95.9%
viability, T/C [19]: 107%
viability, T/C [20]: 107%
viability, T/C [21]: 96.2%
viability, T/C [22]: 96.5%
viability, T/C [23]: 104%
viability, T/C [24]: 88.5%
viability, T/C [25]: 112%
viability, T/C [26]: 97.7%
viability, T/C [27]: 105%
viability, T/C [28]: 87.4%
viability, T/C [29]: 110%
viability, T/C [30]: 94.9%
viability, T/C [31]: 99%
viability, T/C [32]: 107%
viability, T/C [33]: 101%
viability, T/C [34]: 90.9%
viability, T/C [35]: 100%
viability, T/C [36]: 87.3%
